“And” between values parts separate entries of the source, which are not always exact repeats. Equal values may be shown once.

We go through one compound from patent publication US20210106582A1, “COMPOUNDS AND PHARMACEUTICAL COMPOSITIONS THEREOF FOR USE IN THE TREATMENT OF FIBROTIC DISEASES” (Galapagos NV, priority 2017, published 2021).

Test [1] deals with male C57BL/6 mice fed CDAHF diet. The test can be described thus: CDAHFD model (choline-deficient, L-amino acid-defined, high-fat diet). The class given is in vivo. Conditions: individual animals, CDAHFD 10W, 30 mg/kg q.d. p.o.
For test [2], the system named is female C57BL/6J mice, lung fibrosis induced by radiation. The test can be described thus: Radiation induced fibrosis mice model. The class given is in vivo. Conditions: individual animals, irradiated lung, CpdA 30 mg/kg QD PO D1-D14. As to the method:
Pneumonitis and lung fibrosis are the major radiation-induced complications following thoracic radiotherapy, which is one of the major treatment of lung and breast cancers, lymphomas and hematopoietic transplant conditioning.
The objective of this model is to evaluate the effect of a compound of the invention in lung fibrosis induced by radiation in mice. (Bickelhaupt et al., 2017)
7 weeks old (18/22 gr) female C57BL/6J mice from Charles River (France) are maintained on 12 h light/dark cycle at 22° C. with ad libidum access to tap water and food.
The test compounds are dissolved/suspended in appropriate vehicle prior to using and then kept light-free, under agitation at room temperature.
The dose volume administered is 10 mL/kg and the volume is adapted following mean body weight (BW) of the group as follows: 200 μL if mean BW<22.5 g, 250 μL if mean BW≥22.5 g; 300 μL if mean BW>27.5 g.
On day 1 of week 1, the animals are exposed at the thorax to a 17 Gray irradiation dose, under isoflurane anesthesia. […]
Body weight are recorded once a week, and on Day 14, lung function measurement under anesthesia is realized by Flexivent (Devos et al., 2017) for all groups before sacrifice.
At sacrifice on Day 14, the lungs are collected and fixed in 4% formaldehyde for 24 h before embedding in paraffin. […] The anti-collagen I antibody is detected and amplified by ImmPress kit (Vector Laboratories, Cat. No: MP-7401). The immunostained sections are then scanned (Nanozoomer 2.0HT, Hamamatsu) before quantification by image analysis (CaloPix software, TRIBVN Healthcare). Data are expressed as percentage collagen I area per area of lung tissue.
Values for all mice from the same group are averaged. Data are expressed as mean±sem and are compared with a one-way ANOVA followed by Dunnett multiple comparison post hoc test. […]
Manganese superoxide dismutase (MnSOD), located in mitochondria, catalyzes the conversion of superoxide into H2O2, and is a marker of antioxidant response induced by oxidative stress. MnSOD expression is measured immunohistochemically following a protocol adapted from Inghilleri et al. (Inghilleri et al., 2006).
At sacrifice on Day 14, the lungs are collected and fixed in 4% formaldehyde for 24 h before embedding in paraffin. […] The anti-MnSOD antibody is detected by an anti-rabbit biotinylated antibody (Vector Laboratories, Cat. No: BA-1100) amplified by avidin-biotin peroxidase (Vector Laboratories, Cat. No: PK-6100). […] The immunostained sections counterstained with Gill's hematoxylin are then scanned (Nanozoomer 2.0HT, Hamamatsu) before quantification by image analysis (CaloPix software, TRIBVN Healthcare). Data are expressed as percentage MnSOD stained area per area of lung tissue.

`O=c1nc(OC[C@@H]2COCCO2)cc2n1CCc1cc(C#CC3CC3)ccc1-2` [Compound A, 9-Cyclopropylethynyl-2-((S)-1-[1,4]dioxan-2-ylmethoxy)-6,7-dihydro-pyrimido[6,1-a]isoquinolin-4-one]: in test [1] (Fig 12 panel A), the “Col1a1 expression profiles (NRQ-scaled versus Disease-Vehicle)” value is 1.76 and 0.36 and 0.49 and 0.35 and 0.43 and 0.38 and 0.10 and 0.18 and 0.12 and 0.26. Also, the “TNFα expression profiles (NRQ-scaled versus Disease-Vehicle)” value in test [1] (Figure 12 panel B) was 0.53 (2×) and 0.89 and 0.77 and 0.46 and 0.67 and 0.80 and 0.64 and 0.97 and 0.59. Moreover, the “Fibrosis (Sirius red area %)” value in test [1] (liver, Figure 11) was 0.53% (2×) and 0.89% and 0.77% and 0.46% and 0.67% and 0.80% and 0.64% and 0.97% and 0.59%. In addition, the “Type I collagen stained area fraction” value in test [2] (Figure 15) was 16.2% and 14.7% and 11.0% and 13.0% and 8.7% and 8.1% and 6.5% and 8.9% and 9.1% and 8.6%. For the same compound, the “MnSOD stained area fraction” value in test [2] (Figure 16) was 0.31% and 0.74% and 0.39% and 0.57% (3×) and 0.71% and 0.66% and 0.99% and 0.26%.
